Experiment [1] deals with T1, Alpha-1A adrenergic receptor (Rattus norvegicus, UniProt P43140).
T1 sequence (P43140 whole entry): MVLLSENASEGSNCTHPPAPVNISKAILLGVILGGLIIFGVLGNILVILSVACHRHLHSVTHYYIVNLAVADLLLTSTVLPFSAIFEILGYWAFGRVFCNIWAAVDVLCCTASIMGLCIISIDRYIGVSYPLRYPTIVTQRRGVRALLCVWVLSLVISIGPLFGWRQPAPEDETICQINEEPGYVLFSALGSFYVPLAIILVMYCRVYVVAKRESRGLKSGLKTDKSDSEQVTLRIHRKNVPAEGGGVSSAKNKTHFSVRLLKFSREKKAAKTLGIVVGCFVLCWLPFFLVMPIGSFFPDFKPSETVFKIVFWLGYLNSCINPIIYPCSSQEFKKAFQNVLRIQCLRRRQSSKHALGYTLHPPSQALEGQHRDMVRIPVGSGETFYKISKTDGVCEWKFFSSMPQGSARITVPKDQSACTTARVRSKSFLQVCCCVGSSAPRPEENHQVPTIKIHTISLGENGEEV
The experiment can be described thus: DRUGMATRIX: Alpha-1A adrenergic receptor radioligand binding (ligand: prazosin). The format is cell membranes, Wistar, Submaxillary gland, Membrane. The conditions noted are these: Not Active = under 50% inhibition at 10 µM.

The target in experiment [2] is Receptor tyrosine-protein kinase erbB-2 (Homo sapiens, UniProt P04626). As to the kind of experiment: biochemical. In kind it is cell-based, Insect cells. The conditions noted are these: insect cells.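 Also: inhibition of HER2 kinase enzyme activity, measured with Poly(Glu:Tyr) as the phosphorylation substrate; in other assays of this panel Not Active means under 50% inhibition at 10 µM.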
The target in experiment [3] is Delta-type opioid receptor (Homo sapiens, UniProt P41143). The format is cell membranes, HEK293, Membrane. The conditions noted are these: hek293. Also: in other assays of this panel Not Active means under 50% inhibition at 10 µM.
Experiment [4] concerns the target 5-hydroxytryptamine receptor 2B (Homo sapiens, UniProt P41595). In kind it is cell membranes, CHO-K1, Membrane. Also: in other assays of this panel Not Active means under 50% inhibition at 10 µM.
In experiment [5] the target is Prostaglandin G/H synthase 1 (Homo sapiens, UniProt P23219). As to the kind of experiment: biochemical. In kind it is tissue-based, Platelet. Conditions: platelet.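 Also: inhibition of COX-1 enzyme activity, with arachidonic acid supplied as substrate; in other assays of this panel Not Active means under 50% inhibition at 10 µM.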
The target in experiment [6] is Beta-1 adrenergic receptor (Homo sapiens, UniProt P08588). As to the kind of experiment: DRUGMATRIX: Adrenergic beta1 radioligand binding (ligand: [125I] Cyanopindolol). In kind it is cell membranes, CHO-K1, Membrane. The conditions noted are these: cho-k1; Not Active = under 50% inhibition at 10 µM.
For experiment [7], the target named is Epidermal growth factor receptor (Homo sapiens, UniProt P00533). As to the kind of experiment: DRUGMATRIX: Protein Tyrosine Kinase, EGF Receptor enzyme inhibition (substrate: Poly(Glu:Tyr)). The format is cell-based, Insect cells. Conditions: insect cells; Not Active = under 50% inhibition at 10 µM.
The nature of experiment [8]: DRUGMATRIX: Interleukin IL-1 radioligand binding (ligand: [125I] interleukin 1beta). In kind it is cell membranes, Membrane. The conditions noted are these: nih3t3; Not Active = under 50% inhibition at 10 µM.
A further experiment addresses Glycine receptor (Rattus norvegicus, UniProt P22771+P24524+P07727+P20781). The format is cell membranes, Wistar, Spinal cord, Membrane.
The target of experiment [9] is T2, Nitric oxide synthase, inducible (Mus musculus, UniProt P29477).
T2 sequence (P29477 whole entry): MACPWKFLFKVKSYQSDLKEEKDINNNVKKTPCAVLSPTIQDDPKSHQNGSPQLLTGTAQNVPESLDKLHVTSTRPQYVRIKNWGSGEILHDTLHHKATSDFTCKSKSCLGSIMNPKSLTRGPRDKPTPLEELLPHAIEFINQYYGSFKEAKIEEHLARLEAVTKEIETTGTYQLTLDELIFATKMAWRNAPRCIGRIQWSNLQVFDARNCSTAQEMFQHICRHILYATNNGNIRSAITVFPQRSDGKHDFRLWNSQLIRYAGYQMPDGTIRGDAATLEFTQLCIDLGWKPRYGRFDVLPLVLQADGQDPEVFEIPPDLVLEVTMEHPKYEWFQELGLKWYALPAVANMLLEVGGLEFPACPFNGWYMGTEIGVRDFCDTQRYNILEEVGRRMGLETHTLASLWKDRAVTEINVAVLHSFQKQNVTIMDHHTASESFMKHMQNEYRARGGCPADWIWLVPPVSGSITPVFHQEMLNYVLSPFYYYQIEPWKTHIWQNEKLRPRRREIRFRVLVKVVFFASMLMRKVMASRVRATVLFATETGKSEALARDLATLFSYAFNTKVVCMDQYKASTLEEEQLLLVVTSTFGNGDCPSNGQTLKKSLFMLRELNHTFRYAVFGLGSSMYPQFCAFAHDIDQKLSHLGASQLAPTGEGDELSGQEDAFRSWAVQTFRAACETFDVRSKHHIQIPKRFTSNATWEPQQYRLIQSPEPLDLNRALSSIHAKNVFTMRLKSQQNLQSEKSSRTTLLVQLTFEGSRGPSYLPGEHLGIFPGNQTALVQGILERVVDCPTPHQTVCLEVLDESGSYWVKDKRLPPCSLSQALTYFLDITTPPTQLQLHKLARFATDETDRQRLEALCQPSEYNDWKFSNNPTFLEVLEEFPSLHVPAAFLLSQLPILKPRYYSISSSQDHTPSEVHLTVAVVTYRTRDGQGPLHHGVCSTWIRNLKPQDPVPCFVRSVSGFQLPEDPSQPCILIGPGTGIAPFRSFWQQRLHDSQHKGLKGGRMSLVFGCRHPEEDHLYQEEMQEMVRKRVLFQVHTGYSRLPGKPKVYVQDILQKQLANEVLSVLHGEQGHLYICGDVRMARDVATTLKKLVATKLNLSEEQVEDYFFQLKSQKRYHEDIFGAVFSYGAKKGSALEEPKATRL
Details: species or system Escherichia coli.

The target of the next experiment is T3, Interstitial collagenase (Homo sapiens, UniProt P03956).
T3 sequence (P03956 whole entry): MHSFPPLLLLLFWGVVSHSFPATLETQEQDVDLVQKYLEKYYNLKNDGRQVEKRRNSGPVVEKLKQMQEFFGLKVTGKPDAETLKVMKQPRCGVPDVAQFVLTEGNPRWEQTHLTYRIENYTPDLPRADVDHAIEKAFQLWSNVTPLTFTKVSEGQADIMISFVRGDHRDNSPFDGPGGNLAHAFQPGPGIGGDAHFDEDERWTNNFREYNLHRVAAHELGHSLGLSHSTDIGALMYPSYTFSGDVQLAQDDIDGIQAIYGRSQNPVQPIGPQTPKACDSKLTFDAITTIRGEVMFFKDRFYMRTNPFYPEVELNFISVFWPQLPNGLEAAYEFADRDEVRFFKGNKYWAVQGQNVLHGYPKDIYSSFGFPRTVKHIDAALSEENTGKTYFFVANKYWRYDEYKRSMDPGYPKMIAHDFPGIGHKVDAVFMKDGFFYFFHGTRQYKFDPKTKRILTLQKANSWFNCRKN
The format is tissue-based, Rheumatoid synovial fibroblasts.

Beta-1 adrenergic receptor, sequence (P08588 whole entry): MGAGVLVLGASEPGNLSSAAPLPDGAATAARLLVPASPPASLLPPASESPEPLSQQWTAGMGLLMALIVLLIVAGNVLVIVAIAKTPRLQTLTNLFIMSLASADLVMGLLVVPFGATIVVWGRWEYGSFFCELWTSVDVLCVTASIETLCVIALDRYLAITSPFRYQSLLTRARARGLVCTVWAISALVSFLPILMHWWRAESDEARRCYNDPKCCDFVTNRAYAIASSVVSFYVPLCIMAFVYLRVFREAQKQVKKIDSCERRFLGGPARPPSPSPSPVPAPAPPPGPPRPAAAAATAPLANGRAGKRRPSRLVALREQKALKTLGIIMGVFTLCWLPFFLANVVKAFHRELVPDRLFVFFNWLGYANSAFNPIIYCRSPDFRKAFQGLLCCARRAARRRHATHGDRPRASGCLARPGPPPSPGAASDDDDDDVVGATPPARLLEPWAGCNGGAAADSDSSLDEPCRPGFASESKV
Epidermal growth factor receptor, sequence (P00533 whole entry): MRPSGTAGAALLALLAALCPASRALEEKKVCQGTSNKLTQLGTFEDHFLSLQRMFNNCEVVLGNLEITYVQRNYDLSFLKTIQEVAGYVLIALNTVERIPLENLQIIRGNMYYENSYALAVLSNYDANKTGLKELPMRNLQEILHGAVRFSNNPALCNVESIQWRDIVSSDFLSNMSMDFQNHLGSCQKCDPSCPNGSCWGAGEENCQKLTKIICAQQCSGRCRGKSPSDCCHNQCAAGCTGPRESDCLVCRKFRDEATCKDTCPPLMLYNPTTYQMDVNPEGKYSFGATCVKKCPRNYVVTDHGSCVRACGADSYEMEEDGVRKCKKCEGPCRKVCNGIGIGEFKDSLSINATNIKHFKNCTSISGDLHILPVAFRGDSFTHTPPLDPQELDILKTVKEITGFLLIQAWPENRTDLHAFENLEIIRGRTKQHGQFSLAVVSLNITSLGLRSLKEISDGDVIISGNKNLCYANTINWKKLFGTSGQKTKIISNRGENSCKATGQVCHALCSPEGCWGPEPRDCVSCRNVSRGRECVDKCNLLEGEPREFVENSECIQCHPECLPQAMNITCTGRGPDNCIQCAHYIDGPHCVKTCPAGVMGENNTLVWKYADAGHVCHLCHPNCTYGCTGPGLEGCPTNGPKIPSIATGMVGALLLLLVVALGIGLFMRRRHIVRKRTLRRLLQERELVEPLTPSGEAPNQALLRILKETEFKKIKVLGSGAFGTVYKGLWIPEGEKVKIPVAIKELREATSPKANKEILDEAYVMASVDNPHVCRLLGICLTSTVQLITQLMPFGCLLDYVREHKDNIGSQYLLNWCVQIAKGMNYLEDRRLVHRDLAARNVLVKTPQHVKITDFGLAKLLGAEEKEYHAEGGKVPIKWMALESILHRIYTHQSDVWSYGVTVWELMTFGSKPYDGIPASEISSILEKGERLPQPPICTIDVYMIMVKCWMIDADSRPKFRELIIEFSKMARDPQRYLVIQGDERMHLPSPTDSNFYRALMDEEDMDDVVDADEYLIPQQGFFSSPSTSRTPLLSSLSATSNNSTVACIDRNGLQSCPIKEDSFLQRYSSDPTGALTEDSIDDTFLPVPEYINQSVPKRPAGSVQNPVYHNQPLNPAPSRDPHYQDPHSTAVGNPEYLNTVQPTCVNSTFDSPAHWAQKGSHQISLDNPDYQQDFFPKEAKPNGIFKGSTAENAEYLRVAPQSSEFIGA
Delta-type opioid receptor, sequence (P41143 whole entry): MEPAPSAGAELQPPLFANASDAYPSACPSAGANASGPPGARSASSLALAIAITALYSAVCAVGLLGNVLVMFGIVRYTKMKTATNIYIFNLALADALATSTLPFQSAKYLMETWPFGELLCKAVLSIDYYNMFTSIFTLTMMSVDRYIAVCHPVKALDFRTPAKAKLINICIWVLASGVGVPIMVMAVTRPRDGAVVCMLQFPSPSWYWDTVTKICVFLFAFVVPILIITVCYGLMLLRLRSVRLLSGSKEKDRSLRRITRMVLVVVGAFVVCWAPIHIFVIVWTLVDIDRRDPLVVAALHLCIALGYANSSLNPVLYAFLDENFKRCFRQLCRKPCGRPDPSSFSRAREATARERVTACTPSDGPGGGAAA
Receptor tyrosine-protein kinase erbB-2, sequence (P04626 whole entry): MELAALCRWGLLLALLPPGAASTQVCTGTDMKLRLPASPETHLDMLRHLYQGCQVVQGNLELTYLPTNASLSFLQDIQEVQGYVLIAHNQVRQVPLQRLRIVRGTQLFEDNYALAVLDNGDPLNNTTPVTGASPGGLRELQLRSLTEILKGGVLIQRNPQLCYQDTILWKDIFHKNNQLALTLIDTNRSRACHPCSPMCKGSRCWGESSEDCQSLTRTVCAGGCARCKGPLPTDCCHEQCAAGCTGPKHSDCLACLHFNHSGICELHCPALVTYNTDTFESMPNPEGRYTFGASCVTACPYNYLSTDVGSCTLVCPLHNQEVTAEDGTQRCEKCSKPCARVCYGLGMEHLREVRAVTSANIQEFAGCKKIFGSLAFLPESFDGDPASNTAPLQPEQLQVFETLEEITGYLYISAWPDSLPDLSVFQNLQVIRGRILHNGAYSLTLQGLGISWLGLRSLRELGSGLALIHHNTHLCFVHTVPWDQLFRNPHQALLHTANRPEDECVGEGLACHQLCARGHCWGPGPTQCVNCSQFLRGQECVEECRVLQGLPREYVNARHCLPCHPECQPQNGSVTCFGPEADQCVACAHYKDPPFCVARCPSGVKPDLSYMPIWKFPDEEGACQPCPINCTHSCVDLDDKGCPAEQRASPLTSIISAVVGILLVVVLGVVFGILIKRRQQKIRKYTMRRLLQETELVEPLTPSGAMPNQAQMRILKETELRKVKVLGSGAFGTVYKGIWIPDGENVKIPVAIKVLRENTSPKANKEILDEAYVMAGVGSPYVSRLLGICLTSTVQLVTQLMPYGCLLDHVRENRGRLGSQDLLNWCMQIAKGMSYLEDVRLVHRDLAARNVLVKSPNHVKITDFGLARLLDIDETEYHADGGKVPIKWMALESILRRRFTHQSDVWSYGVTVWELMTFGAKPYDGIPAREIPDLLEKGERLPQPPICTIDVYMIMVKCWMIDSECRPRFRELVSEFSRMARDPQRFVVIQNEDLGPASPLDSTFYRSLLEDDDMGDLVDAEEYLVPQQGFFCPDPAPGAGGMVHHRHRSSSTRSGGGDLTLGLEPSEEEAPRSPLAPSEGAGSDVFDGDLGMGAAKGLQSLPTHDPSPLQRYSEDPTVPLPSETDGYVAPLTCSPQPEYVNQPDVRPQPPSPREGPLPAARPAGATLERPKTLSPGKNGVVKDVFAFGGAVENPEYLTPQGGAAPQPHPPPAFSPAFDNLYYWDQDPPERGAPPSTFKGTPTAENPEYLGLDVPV
Prostaglandin G/H synthase 1, sequence (P23219 whole entry): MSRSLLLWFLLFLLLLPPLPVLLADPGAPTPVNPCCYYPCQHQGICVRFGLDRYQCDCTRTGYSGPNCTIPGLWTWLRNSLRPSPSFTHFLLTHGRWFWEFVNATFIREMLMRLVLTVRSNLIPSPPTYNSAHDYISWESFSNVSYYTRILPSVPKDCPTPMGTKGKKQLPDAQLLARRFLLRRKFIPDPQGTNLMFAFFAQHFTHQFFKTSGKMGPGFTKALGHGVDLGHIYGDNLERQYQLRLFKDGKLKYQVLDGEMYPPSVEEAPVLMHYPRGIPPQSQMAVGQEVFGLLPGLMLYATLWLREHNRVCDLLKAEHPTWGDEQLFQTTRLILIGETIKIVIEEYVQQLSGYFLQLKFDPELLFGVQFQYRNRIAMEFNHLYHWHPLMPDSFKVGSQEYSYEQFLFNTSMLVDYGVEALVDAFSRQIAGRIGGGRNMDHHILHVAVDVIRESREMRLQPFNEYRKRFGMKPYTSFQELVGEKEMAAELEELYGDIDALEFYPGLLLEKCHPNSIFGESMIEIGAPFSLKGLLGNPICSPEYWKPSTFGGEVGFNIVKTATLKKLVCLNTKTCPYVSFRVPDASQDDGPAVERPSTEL
5-hydroxytryptamine receptor 2B, sequence (P41595 whole entry): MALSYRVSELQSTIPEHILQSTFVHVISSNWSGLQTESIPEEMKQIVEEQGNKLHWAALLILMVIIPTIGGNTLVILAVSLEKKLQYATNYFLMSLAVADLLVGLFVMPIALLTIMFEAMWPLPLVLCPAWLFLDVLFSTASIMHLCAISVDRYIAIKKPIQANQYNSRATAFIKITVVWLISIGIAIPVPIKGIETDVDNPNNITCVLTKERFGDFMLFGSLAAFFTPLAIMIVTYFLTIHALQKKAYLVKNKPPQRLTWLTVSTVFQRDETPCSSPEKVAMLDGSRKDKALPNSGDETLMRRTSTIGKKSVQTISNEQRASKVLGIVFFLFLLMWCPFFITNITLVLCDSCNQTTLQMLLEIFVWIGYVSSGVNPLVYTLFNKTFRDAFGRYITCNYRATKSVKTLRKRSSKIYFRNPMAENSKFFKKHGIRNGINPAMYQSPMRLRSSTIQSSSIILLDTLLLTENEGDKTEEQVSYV

One may read the IC50 as the point on the concentration scale where inhibition reaches its midpoint. By Ki is commonly meant a measure of affinity in units of concentration, obtained from inhibition or displacement. Take `NS(=O)(=O)c1cc2c(cc1Cl)NCNS2(=O)=O` [HYDROCHLOROTHIAZIDE]: the IC50 entry in experiment [1], in experiment [2], in experiment [3], in [4] (cho-k1), in [5] and in experiment [6] was “Not Active” each time. The IC50 result (in experiment [7]; in [8]; on Glycine receptor; in experiment [9]; on Interstitial collagenase) was “Not Active” each time. For the same compound, the Ki entry in [8] is on record as “Not Active”.

As for `O=P1(NCCCl)OCCCN1CCCl` (stereo not given) [IFOSFAMIDE], the IC50 result in experiment [1], in experiment [2], in experiment [3], in experiment [4] (cho-k1), in [5] and in [6] was “Not Active” in each case. The IC50 result (in [7]; in [8]; against Glycine receptor; in [9]; against Interstitial collagenase) was “Not Active” throughout. Moreover, the Ki entry in [8] is “Not Active”.

Consider `CN1CCC[C@H]1c1cccnc1` [NICOTINE], for which the IC50 result in experiment [1], in experiment [2], in [3], in experiment [4] (cho-k1), in experiment [5] and in experiment [6] was “Not Active” in each case. The half-inhibitory concentration (IC50) entry (in experiment [7]; in [8]; at Glycine receptor; in experiment [9]; against Interstitial collagenase) was “Not Active” each time. Moreover, the Ki entry in [8] is on record as “Not Active”.

Take `O=C1CN=C(c2ccccc2)c2cc([N+](=O)[O-])ccc2N1` [NITRAZEPAM]: the IC50 result in experiment [1], in experiment [2], in experiment [3], in experiment [4] (cho-k1), in [5] and in experiment [6] was “Not Active” throughout. Besides, the IC50 result (in experiment [7]; in experiment [8]; against Glycine receptor; in experiment [9]; on Interstitial collagenase) was “Not Active” in each case. For the same compound, the Ki result in experiment [8] was “Not Active”.

For `CNCCC=C1c2ccccc2CCc2ccccc21` [NORTRIPTYLINE], the concentration for half-maximal inhibition (IC50) in [1] (read-out: IC50) was 0.305 µM; in experiment [2] it was “Not Active”; in experiment [3], “Not Active”; in experiment [4] (read-out: IC50) it was 0.136 µM; in experiment [5] it was “Not Active”; in experiment [6], “Not Active”. Besides, the half-maximal inhibitory concentration (IC50) entry (in experiment [7]; in experiment [8]; against Glycine receptor; in experiment [9]; at Interstitial collagenase) was “Not Active” each time. Besides, the Ki was 0.123 µM in [1] (read-out: Ki), 0.086 µM in experiment [4] (read-out: Ki) and “Not Active” in experiment [8].

As for `CC1COc2c(N3CCN(C)CC3)c(F)cc3c(=O)c(C(=O)O)cn1c23` (stereo not given) [OFLOXACIN], the IC50 result in experiment [1], in [2], in experiment [3], in [4] (cho-k1), in [5] and in experiment [6] was “Not Active” each time. For the same compound, the IC50 entry (in experiment [7]; in experiment [8]; on Glycine receptor; in experiment [9]; against Interstitial collagenase) was “Not Active” each time. Further, in [8], the inhibition constant (Ki) entry is recorded as “Not Active”.

In the case of `Oc1cccc2cccnc12` [OXYQUINOLINE], the IC50 entry in [1], in [2], in experiment [3], in [4] (cho-k1), in [5] and in experiment [6] was “Not Active” in each case. Moreover, the IC50 result (in [7]; in experiment [8]; on Glycine receptor; in [9]; on Interstitial collagenase) was “Not Active” each time. Also, the Ki entry in experiment [8] was “Not Active”.

Take `CN(C)[C@@H]1C(O)=C(C(N)=O)C(=O)[C@@]2(O)C(O)=C3C(=O)c4c(O)cccc4[C@@](C)(O)[C@H]3[C@H](O)[C@@H]12` [OXYTETRACYCLINE]: the IC50 result in experiment [1], in [2], in experiment [3], in experiment [4] (cho-k1), in experiment [5] and in experiment [6] was “Not Active” in each case. Also, the IC50 entry (in experiment [7]; in experiment [8]; against Glycine receptor; in [9]; on Interstitial collagenase) was “Not Active” throughout. Besides, the Ki entry in experiment [8] is “Not Active”.

As for `Fc1ccc([C@@H]2CCNC[C@H]2COc2ccc3c(c2)OCO3)cc1` [PAROXETINE], the IC50 result in experiment [1], in experiment [2], in experiment [3], in [4] (cho-k1), in experiment [5] and in experiment [6] was “Not Active” each time. For the same compound, the IC50 result (in experiment [7]; in experiment [8]; against Glycine receptor; in experiment [9]; against Interstitial collagenase) was “Not Active” throughout. For the same compound, the inhibition constant (Ki) result in experiment [8] is given as “Not Active”.
